This assay concerns the target T1, Recombinant human renin (Homo sapiens, UniProt P00797).
T1 construct: made in house; host or cells: Chinese Hamster Ovary cells
T1 sequence (P00797 67-406): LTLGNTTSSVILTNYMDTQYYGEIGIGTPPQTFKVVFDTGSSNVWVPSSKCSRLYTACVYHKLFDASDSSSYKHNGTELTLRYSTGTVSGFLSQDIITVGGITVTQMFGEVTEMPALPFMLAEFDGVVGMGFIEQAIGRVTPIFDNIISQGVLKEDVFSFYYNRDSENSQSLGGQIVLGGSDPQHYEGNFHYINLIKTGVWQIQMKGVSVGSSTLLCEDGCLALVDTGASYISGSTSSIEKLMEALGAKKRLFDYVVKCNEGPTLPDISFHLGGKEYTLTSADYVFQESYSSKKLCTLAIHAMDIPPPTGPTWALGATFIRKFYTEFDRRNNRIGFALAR
Kind of assay: Renin inhibitory activity in vitro, hu-renin FRET assay. The class given is biochemical. On the procedure: Recombinant human renin (expressed in Chinese Hamster Ovary cells and purified using standard methods) at 4 nM concentration is incubated with test compound at various concentrations for 1 h at RT in 0.1 M Tris-HCl buffer, pH 7.4, containing 0.05 M NaCl, 0.5 mM EDTA and 0.05% CHAPS. Synthetic peptide substrate Arg-Glu(EDANS)-Ile-His-Pro-Phe-His-Leu-Val-Ile_His_Thr-Lys(DABCYL)-Arg9 is added to a final concentration of 2 μM and increase in fluorescence is recorded at an excitation wave-length of 340 nm and at an emission wave-length of 485 nm in a microplate spectro-fluorimeter. IC50 values are calculated from percentage of inhibition of renin activity as a function of test compound concentration (Fluorescence Resonance Energy Transfer, FRET, assay). Recombinant human renin (expressed in Chinese Hamster Ovary cells and purified using standard methods) at 1 nM concentration is incubated with test compound at various concentrations for 1.5 h at 37° C. in 0.1 M Tris/HCl pH 7.4 containing 0.05 M NaCl, 0.5 mM EDTA and 0.025% (w/v) CHAPS. Synthetic peptide substrate Ac-Ile-His-Pro-Phe-His-Leu-Val-Ile-His-Asn-Lys-[DY-505-X5] is added to a final concentration of 5 μM. The enzyme reaction is stopped by adding 6 μL of 1.0% TFA. The product of the reaction is separated by HPLC and quantified by spectrophotometric measurement at […] wave-length. IC50 values are calculated from percentage of inhibition of renin activity as a function of test compound concentration.
Renin inhibitory activity was assessed in vitro by FRET assay (as above described). Results for representative compounds of formula I are: […]

For orientation: IC50 means the concentration at which inhibition is half-maximal. `COCCCOc1cc(C[C@@H](C[C@H](N)[C@@H](O)C[C@H](C(=O)NCC2CCOCC2)C(C)C)C(C)C)ccc1OC` [Example 14, (2S,4S,5S,7S)-5-Amino-4-hydroxy-2-isopropyl-7-[4-methoxy-3-(3-methoxy-propoxy)-benzyl]-8-methyl-nonanoic acid (tetrahydro-pyran-4-ylmethyl)-amide]: the half-inhibitory concentration (IC50) came to 1.4 nM.
